Assay results reported in patent US9636374B2, “pH-sensitive polymer-drug conjugates for targeted delivery of therapeutics” (priority 2011, dated 2017).
“Also recorded” adds a separate entry of the source.

Assays:
[1] = H1-NMR analysis of pH-dependent dissociation of bortezomib-catechol conjugates; format: physicochemical; conditions: as the pH decreased from 7.4 to 5.5; 1 mM in deuterated phosphate buffer
Method: First, the pH-dependent reversible binding between BTZ and catechol-containing polymers was characterized using H^1-NMR spectroscopy (FIG. 3A). At pH 5.5, mixing BTZ and catechol-containing dopamine (DA) gave a spectrum similar to that of the two individual compounds superimposed on each other, indicating the presence of un-complexed BTZ and DA.
H^1-NMR analysis of pH-dependent dissociation of bortezomib-catechol conjugates. Bortezomib and dopamine hydrogen chloride were dissolved separately in d6-DMSO 0.2 M concentration. The two solutions were mixed to give a stock solution of DA-BTZ conjugate at 0.1 M in DMSO. A solution of 0.1 M monosodium phosphate in D2O was used to dilute the DA-BTZ stock to 1 mM, and pH of such solutions were adjusted with 4N NaOH in D2O to 5.5, 6.5, 7.4 and 8.5. These solutions were analyzed on AVANCE III 500 MHz (FIG. 6) and peak integrals in the range of 7.2 to 5.5 ppm were used for quantifying the degree of dissociation of DA-BTZ presented in FIG. 3B.

[2] = system: MDA-MB-231, MCF-10A-H-RasV12 and MCF-10A-Vector cells; experiment: Biotin-mediated cell uptake of PEG-FITC (fluorescence microscopy); format: cell-based, human; conditions: 15 minute-treatment; for cellular uptake: 1 μM, cancer and noncancerous cells
[3] = 3-component inhibition fluorescence assay (ARS-bortezomib competition); format: physicochemical; conditions: from pH 7.4 to pH 5.5
Method: 3-component inhibition fluorescence assay. The fluorescence assay for characterizing pH-sensitive binding between bortezomib and catechol was carried out using procedures modified from the aforementioned literature method. Briefly, a solution of 0.1 mM ARS was prepared in 0.1 M phosphate monosodium buffer (solution A). Bortezomib was dissolved in solution A to achieve final concentration of 1 mM (solution B). The pH of both solution A and solution B was adjusted to 5.5, 6.5 and 7.4 using a 4N NaOH aqueous solution. Solution B was titrated to solution A to make a series of solutions that contain constant concentration of ARS (0.1 mM) and varying concentration of bortezomib (0˜1 mM) at defined pH. After mixing the two solutions, the final solution stood for 5 minutes before fluorescence measurement at excitation 495 nm, emission 565 nm on SpectraMax M5 (Molecular Devices, Sunnyvale, Calif.). This procedure was used to probe the pH-dependence of ARS-BTZ binding (FIG. 6). The binding capacity of catechol for bortezomib was characterized based on the inhibition of catechol on ARS-bortezomib binding, resulting in a decrease in fluorescence intensity. […] Fluorescence intensity of each solution was measured to plot the binding inhibition curves in FIG. 7. […] Fmax refers to the fluorescence intensity of ARS-BTZ conjugate in solution C at a defined pH. […]

Molecule: CC(C)CC(NC(=O)C(Cc1ccccc1)NC(=O)c1cnccn1)B1Oc2ccc(CCN)cc2O1 (centres unmarked) [BTZ-catechol conjugate]
- increase in dissociation of the BTZ-catechol conjugate [1]: 50%

Molecule: O=C(O)CCCC[C@@H]1SC[C@@H]2NC(=O)N[C@@H]21 [biotin, reference compound]
- inhibition of cellular uptake of biotin-PEG-FITC ([2]; free biotin in buffer): Dose-dependent inhibition

Molecule: PEG-FITC
- cellular uptake [2]: little; also recorded: minimal

Molecule: PEG-catechol
- decrease in binding affinity for BTZ [3]: about 60%

Molecule: biotin-PEG-FITC
- cellular uptake [2]: showed uptake; also recorded: rapidly taken up
